Source: ChEMBL document CHEMBL1126054, “Structure and molecular modeling of GABAA receptor antagonists” (J Med Chem, 1992)

Legend:
[1] = biological target: GABA-A receptor; anion channel; test: (§1) Displacement of [3H]GABA from gamma-aminobutyric-acid A (GABA-A) receptor; format: protein-complex assay, Rattus norvegicus
[2] = biological target: GABA-A receptor; anion channel; test: Displacement of [3H]muscimol from Gamma-aminobutyric acid A (GABA-A) receptor; format: protein-complex assay, Rattus norvegicus
[3] = as §1; set-up: species or system Rattus norvegicus

Structure (SMILES): COc1cc2c3cc1Oc1cc(ccc1O)C[C@@H]1c4c(cc(OC)c(O)c4Oc4ccc(cc4)C[C@@H]3N(C)CC2)CC[N+]1(C)C
- IC50 [1]: 58 µM

Structure (SMILES): Oc1onc2c1CCNCC2
- IC50 [1]: 16 µM

Structure (SMILES): CC12CC(=O)C3C(CCC4CC(O)CCC43C)C1CC(=N)N2 (stereo not given)
- IC50 [1]: 0.02 µM

Structure (SMILES): c1ccc2c(c1)Cc1ccccc1-n1c-2nnc1N1CCNCC1 [PITRAZEPINE]
- IC50 [2]: 0.24 µM

Structure (SMILES): O=C1C=C2C=C[C@@H]3C[C@@]2(O1)[C@H]1CCCCN31 [SECURININE]
- IC50 [3]: 50 µM
